IC50 data for one compound are collected here from patent publication US7074789B2, “Kinase inhibitors” (Amgen Inc., priority 1999, dated 2006).

Molecules are shown by their SMILES.

The assay concerns the target T1, PDGFRB (Homo sapiens, UniProt P09619).
T1 construct: Kinases are expressed as either kinase domains or full length constructs; made in house
As to the kind of experiment: Kinase inhibition assay (33P transfer), PDGFRB. The assay is classed as biochemical. The note with it: read-out: PDGFRB-1.

T1 sequence (P09619 33-1106, species assumed): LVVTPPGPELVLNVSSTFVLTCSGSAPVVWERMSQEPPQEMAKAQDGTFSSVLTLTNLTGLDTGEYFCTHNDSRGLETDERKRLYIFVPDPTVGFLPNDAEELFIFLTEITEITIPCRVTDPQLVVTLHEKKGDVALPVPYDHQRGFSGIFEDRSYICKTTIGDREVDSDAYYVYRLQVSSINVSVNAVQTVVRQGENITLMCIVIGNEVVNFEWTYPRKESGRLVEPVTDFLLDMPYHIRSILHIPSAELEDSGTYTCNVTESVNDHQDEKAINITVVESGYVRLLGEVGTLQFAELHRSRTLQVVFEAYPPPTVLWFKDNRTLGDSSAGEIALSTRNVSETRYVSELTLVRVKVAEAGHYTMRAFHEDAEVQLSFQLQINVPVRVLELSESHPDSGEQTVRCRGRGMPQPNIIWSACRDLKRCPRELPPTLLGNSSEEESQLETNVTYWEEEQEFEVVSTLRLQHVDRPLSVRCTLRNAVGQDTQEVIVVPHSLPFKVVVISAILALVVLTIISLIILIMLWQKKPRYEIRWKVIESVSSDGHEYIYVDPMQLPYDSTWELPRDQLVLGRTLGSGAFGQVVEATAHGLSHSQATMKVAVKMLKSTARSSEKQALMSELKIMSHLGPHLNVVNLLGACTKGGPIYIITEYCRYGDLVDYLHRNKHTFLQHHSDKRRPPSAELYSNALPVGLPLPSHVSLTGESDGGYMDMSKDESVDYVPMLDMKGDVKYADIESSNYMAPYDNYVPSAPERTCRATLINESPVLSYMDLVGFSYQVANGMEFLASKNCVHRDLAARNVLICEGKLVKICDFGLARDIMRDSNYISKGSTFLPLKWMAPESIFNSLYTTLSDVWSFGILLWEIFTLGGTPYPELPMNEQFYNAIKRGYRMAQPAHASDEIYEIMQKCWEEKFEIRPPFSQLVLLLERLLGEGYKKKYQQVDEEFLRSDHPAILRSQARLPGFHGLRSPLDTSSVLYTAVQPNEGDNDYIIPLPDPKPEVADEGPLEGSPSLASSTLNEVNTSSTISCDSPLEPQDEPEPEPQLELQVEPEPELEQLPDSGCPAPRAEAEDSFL

Take `COC(=O)c1cccc(Nc2nc3ccccc3n2-c2ncnc(Nc3cc(OC)c(OC)c(OC)c3)n2)c1` [Compound 383]: the IC50 is less than 758 nM.
